Assay [1] deals with T1, MCL-1 protein (Homo sapiens, UniProt Q07820).
T1 construct: Bim peptide bought from R&D, 3526/1 NA
Kind of assay: MCL-1 protein binding experiment (HTRF, MCL-1/Bim). The settings on record: for inhibition at up to 10 µM: HTRF MCL-1/Bim binding, initial concentration 10 μM, read-out: Maximum inhibition rate (%); for Ki: HTRF, 0.1 nM His-MCL-1, 2.5 nM bio-Bim, room temperature. The method, then:
The following method was used to determine the binding ability of the compound of the present invention to MCL-1 protein. The experimental method is briefly described as follows.
MCL-1 inhibitors can bind to MCL-1 protein to prevent the binding of MCL-1 to Bim protein. The experiment evaluates the binding ability of MCL-1 inhibitor to MCL-1 protein by detecting the binding of MCL-1 to Bim protein through HTRF method, and the activity of the compound was evaluated according to the Ki value.
The mixture was incubated at room temperature for 2 hours, followed by the detection of fluorescence signals at 620 nm and 665 nm by PHERAstar. The data was processed by GraphPad software.

In assay [2] the test system is MV-4-11 cells. Kind of assay: Cell proliferation experiment (intracellular ATP, CellTiter-Glo), MV-4-11. It is filed as cell-based. The conditions noted are these: Homo sapiens, MV4-11, 72 h, read-out: MV-4-11 IC50. Here is the method: (§1) The following method evaluates the inhibition effect of the compound of the present invention on the proliferation of AMO-1 and MV-4-11 cells according to IC50 value by detecting intracellular ATP content. The experimental method is briefly described as follows.
(§2) AMO-1 cells were cultured in RPMI1640 medium (containing 20% FBS), and MV-4-11 cells were cultured in IMDM medium (containing 10% FBS). The cells were passaged for 2 to 3 times a week, with a passage ratio of 1:4 or 1:6. During the passage, the cells were transferred to a centrifuge tube and centrifuged at 1200 rpm for 3 minutes. The supernatant was discarded, and fresh medium was added to resuspend the cells. […] 100 μL of complete medium was added to the periphery of the 96-well plate. The plate was incubated in an incubator for 24 hours (37° C., 5% CO2).
(§3) The test sample was diluted to 20 mM with DMSO, and then diluted to 9 concentrations by diluting in 4-fold gradient. Blank and control wells were set. 5 μL of the test compound solution formulated as gradient concentration was added to 95 μL of fresh medium. 10 µL of the above drug-containing medium solution was added to the plate. The plate was incubated in an incubator for 3 days (37° C., 5% CO2). In the 96-well cell culture plate, 50 μL of CellTiter-Glo reagent was added to each well, and the plate was left to stand in the dark at room temperature for 5 to 10 minutes. The chemiluminescence signal value was read in PHERAstar, and the data was processed by GraphPad software.

For assay [3], the system named is AMO-1 cells. Kind of assay: Cell proliferation experiment (intracellular ATP, CellTiter-Glo), AMO-1. It is filed as cell-based. The conditions noted are these: Homo sapiens, AMO1, 72 h, read-out: AMO-1 IC50. The method, then: as §1
1. AMO-1, human bone marrow plasmacytoma (Nanjing Cobioer Biosciences Co., Ltd., CBP60242)
as §2, §3

The target in assay [4] is T2, 2C19 (Homo sapiens, UniProt P33261).
T2 construct: Human liver microsomes (Corning Gentest, Cat No. 452161, Lot No. 6123001, 33 Donors); tissue Corning Gentest 452161; host or cells: human liver microsomes, pool of 33 donors
T2 sequence (P33261 whole entry): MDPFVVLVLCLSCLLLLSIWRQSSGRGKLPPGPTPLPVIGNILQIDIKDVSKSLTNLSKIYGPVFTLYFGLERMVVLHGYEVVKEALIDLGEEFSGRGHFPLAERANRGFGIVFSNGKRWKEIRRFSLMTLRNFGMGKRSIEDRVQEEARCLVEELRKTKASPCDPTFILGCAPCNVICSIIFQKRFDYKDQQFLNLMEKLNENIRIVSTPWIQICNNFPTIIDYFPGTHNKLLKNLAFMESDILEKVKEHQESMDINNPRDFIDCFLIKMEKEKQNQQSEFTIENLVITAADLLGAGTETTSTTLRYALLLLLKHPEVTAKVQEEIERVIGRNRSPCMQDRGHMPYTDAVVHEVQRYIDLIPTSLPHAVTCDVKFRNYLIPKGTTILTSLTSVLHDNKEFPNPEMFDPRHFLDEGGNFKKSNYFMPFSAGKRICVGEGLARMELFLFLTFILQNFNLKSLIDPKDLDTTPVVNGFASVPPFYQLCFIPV
Kind of assay: Inhibition of human liver microsomal P450 subenzyme CYP2C19. It is filed as in vitro ADME. The settings on record: human liver microsomes, (S)-mephenytoin metabolic site, 30 minutes incubation. The method, then: (§4) The inhibition effect of the compound of the present invention on the enzymatic activity of human liver microsomal P450 subenzymes CYP2C9 and 2C19 was determined by the following experimental method.
(§5) 6. CYP probe substrate for 2C9 (Diclofenac/4 μM, SIGMA, Cat No. D6899-10G) and CYP probe substrate for 2C19 ((S)-Mephenytoin/20 μM, J&K Scientific Ltd., CatNo. 303768); positive control inhibitor for 2C9 ([…], SIGMA, Cat No. 526-08-9) and positive control inhibitor for 2C19 (Ticlopidine, SIGMA, Cat No. T6654-1G).
(§6) 100 mM PBS buffer solution was formulated. 2.5 mg/mL microsome solution, 15 mM MgCl2 solution and 5 mM NADPH solution were formulated with the buffer solution. 30 mM stock solution was diluted with DMSO into a serial solution I with concentrations of 10 mM, 3 mM, 1 mM, 0.3 mM, 0.1 mM, 0.03 mM, […] and 0 mM. The above serial solution I was diluted for 200 times with the phosphate buffer solution (PBS) to obtain a serial test solution II (150, 50, 15, 5, 1.5, 0.15, 0.015, 0 μM). […]
(§7) The data were calculated by Graphpad Prism to obtain the IC50 values of the compound for the diclofenac metabolic site of CYP2C9 and (S)-mephenytoin metabolic site of 2C19. which are shown in Table 3.

Assay [5] addresses T3, CYP2C9 (Homo sapiens, UniProt P11712).
T3 construct: Human liver microsomes (Corning Gentest, Cat No. 452161, Lot No. 6123001, 33 Donors); tissue Corning Gentest 452161; host or cells: human liver microsomes, pool of 33 donors
Kind of assay: Inhibition of human liver microsomal P450 subenzyme CYP2C9. The conditions noted are these: human liver microsomes, diclofenac metabolic site, 30 minutes incubation; read-out: 2C9 IC50. It is filed as in vitro ADME. Here is the method:
as §4, §5, §6, §7

Where [6] appears, read: MV-4-11 cells, incubated 3 days, CellTiter-Glo.
[7] abbreviates: AMO-1 cells, incubated 3 days, CellTiter-Glo.

Molecules are shown by their SMILES. Like-named read-outs stand apart in the source and are kept apart here.

T1 sequence (Q07820 171-327): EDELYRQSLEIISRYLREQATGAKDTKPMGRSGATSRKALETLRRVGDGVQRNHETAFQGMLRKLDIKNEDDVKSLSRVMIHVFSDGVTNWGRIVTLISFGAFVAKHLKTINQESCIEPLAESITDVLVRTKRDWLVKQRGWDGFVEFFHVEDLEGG
T3 sequence (P11712 whole entry): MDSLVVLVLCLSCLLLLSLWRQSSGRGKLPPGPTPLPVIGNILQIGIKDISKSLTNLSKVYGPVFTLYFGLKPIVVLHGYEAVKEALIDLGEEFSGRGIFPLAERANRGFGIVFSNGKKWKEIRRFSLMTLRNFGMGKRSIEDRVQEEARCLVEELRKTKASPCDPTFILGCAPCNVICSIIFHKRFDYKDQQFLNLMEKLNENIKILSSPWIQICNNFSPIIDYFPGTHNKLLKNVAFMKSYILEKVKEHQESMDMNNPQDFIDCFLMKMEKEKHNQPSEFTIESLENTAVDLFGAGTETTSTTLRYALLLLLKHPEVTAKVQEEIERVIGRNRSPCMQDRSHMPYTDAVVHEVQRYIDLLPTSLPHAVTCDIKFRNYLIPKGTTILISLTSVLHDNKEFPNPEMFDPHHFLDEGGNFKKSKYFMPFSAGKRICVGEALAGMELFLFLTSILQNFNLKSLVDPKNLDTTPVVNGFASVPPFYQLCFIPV

Take `Cc1c(C(=O)O)n2c3ccc(Cl)c(c13)-c1c(nn(C)c1C)CSCc1cc(n(C)n1)CSc1cc(c3ccccc3c1)OCCC2` (single isomer, unassigned) [Example 2-1, (Ra)-17-Chloro-5,13,14,22-tetramethyl-28-oxa-2,9-dithia-5,6,12,13,24-pentaazaheptacyclo[27.7.1.1^4,7.0^11,15.0^16,21.0^20,24.0^30,35]octatriaconta-1(37),4(38),6,11,14,16,18,20,22,29,31,33,35-tridecaene-23-carboxylic acid]: in assay [1], the inhibition at up to 10 µM was 100% and the Ki amounted to 0.11 nM. Besides, the IC50 in assay [2] (setting [6]) was 42 nM. For the same compound, the IC50 in assay [3] (setting [7]) amounted to 76 nM.

With `Cc1c(C(=O)O)n2c3ccc(Cl)c(c13)-c1c(nn(C)c1C)CSCc1cc(n(C)n1)CCc1cc(c3ccccc3c1)OCCC2` (single isomer, unassigned) [Example 4-1, (Ra)-17-Chloro-5,13,14,22-tetramethyl-28-oxa-9-thia-5,6,12,13,24-pentaazaheptacyclo[27.7.1.1^4,7.0^11,15.0^16,21.0^20,24.0^30,35]octatriaconta-1(37),4(38),6,11,14,16,18,20,22,29,31,33,35-tridecaene-23-carboxylic acid], the inhibition at up to 10 µM in assay [1] was 100%. For the same compound, the Ki in assay [1] stood at 0.15 nM. The figures for the IC50 in assay [2] and in assay [3] were 39 nM and 37 nM, respectively.

Take `Cc1c(C(=O)O)n2c3ccc(Cl)c(c13)-c1c(nn(C)c1C)CSCc1cc(n(C)n1)CSc1cc3c(c(c1)OCCC2)CCCC3` (single isomer, unassigned) [Example 7-1, (Ra)-17-Chloro-5,13,14,22-tetramethyl-28-oxa-2,9-dithia-5,6,12,13,24-pentaazaheptacyclo[27.7.1.1^4,7.0^11,15.0^16,21.0^20,24.0^30,35]octatriaconta-1(37),4(38),6,11,14,16,18,20,22,29,35-undecaene-23-carboxylic acid]: in assay [1], the inhibition at up to 10 µM was found to be 99% and the affinity, expressed as Ki, was 0.74 nM. The IC50 in assay [2] (setting [6]) came out at 71 nM. For the same compound, the IC50 in assay [3] (setting [7]) was found to be 70 nM.

Turning to `Cc1c(C(=O)O)n2c3ccc(Cl)c(c13)-c1c(nn(C)c1C)CSCc1cc(n(C)n1)CCc1cc3c(c(c1)OCCC2)CCCC3` (single isomer, unassigned) [Example 8-1, (Ra)-17-Chloro-5,13,14,22-tetramethyl-28-oxa-9-thia-5,6,12,13,24-pentaazaheptacyclo[27.7.1.1^4,7.0^11,15.0^16,21.0^20,24.0^30,35]octatriaconta-1(37),4(38),6,11,14,16,18,20,22,29,35-undecaene-23-carboxylic acid], the inhibition at up to 10 µM in assay [1] turned out to be 100%. This compound yielded a Ki in assay [1] of 0.46 nM. Moreover, the results for the IC50 in assay [2] (setting [6]) and in assay [3] (setting [7]) were 136 nM and 100 nM, respectively.

For the compound `Cc1c(C(=O)O)n2c3ccc(Cl)c(c13)-c1c(nn(C)c1C)CSCc1cc(n(C)n1)CSc1cc(cc3c1CCC3)OCCC2` (single isomer, unassigned) [Example 12-1, (Ra)-17-Chloro-5,13,14,22-tetramethyl-28-oxa-2,9-dithia-5,6,12,13,24-pentaazaheptacyclo[27.6.1.1^4,7.0^11,15.0^16,21.0^20,24.0^30,35]heptatriaconta-1(36),4(37),6,11,14,16,18,20,22,29,31(35)-undecaene-23-carboxylic acid], the inhibition at up to 10 µM in assay [1] worked out at 100%. This compound also returned a Ki in assay [1] of 0.24 nM. For the same compound, the IC50 in assay [2] (setting [6]) was 36 nM; in assay [4], more than 30000 nM; in assay [5], more than 30000 nM; in assay [3] (setting [7]), 34 nM.

Turning to `Cc1c(C(=O)O)n2c3ccc(Cl)c(c13)-c1c(nn(C)c1C)CSCc1cc(n(C)n1)CSc1cc3c(c(c1)OCCC2)CCC3` (single isomer, unassigned) [Example 13-1, (Ra)-17-Chloro-5,13,14,22-tetramethyl-28-oxa-2,9-dithia-5,6,12,13,24-pentaazaheptacyclo[27.6.1.1^4,7.0^11,15.0^16,21.0^20,24.0^30,34]heptatriaconta-1(36),4(37),6,11,14,16,18,20,22,29,34-undecaene-23-carboxylic acid], in assay [1], the inhibition at up to 10 µM was determined as 100%. The compound further returned a Ki in assay [1] of 0.16 nM. Also, the IC50 in assay [2] (setting [6]) was 26 nM; in assay [4], more than 30000 nM; in assay [5], 16600 nM; in assay [3] (setting [7]), 26 nM.

Consider `Cc1c(C(=O)O)n2c3ccc(Cl)c(c13)-c1c(nn(C)c1C)CSCc1cc(n(C)n1)CSc1cc(cc3c1CCC3)OCCC2` [Example 12, 17-Chloro-5,13,14,22-tetramethyl-28-oxa-2,9-dithia-5,6,12,13,24-pentaazaheptacyclo[27.6.1.1^4,7.0^11,15.0^16,21.0^20,24.0^30,35]heptatriaconta-1(36),4(37),6,11,14,16,18,20,22,29,31(35)-undecaene-23-carboxylic acid], for which the inhibition at up to 10 µM in assay [1] was determined as 100%. The compound further gave a Ki in assay [1] of 0.22 nM. Besides, the 50% inhibitory concentration (IC50) in assay [2] (setting [6]) and in assay [3] (setting [7]) was 63 nM in each case.

Values taken from patent publication US20220041623A1, “INDOLE MACROCYCLIC DERIVATIVE, PREPARATION METHOD THEREOF AND APPLICATION THEREOF IN MEDICINE” (JIANGSU HENGRUI MEDICINE CO., LTD., priority 2018, published 2022).
